Counter-ions that a name gives are not always drawn. Like-named read-outs stand apart in the source and are kept apart here.
Assays:
PDE3A = molecular target: T1, PDE3A (Homo sapiens, UniProt Q14432); experiment: In vitro inhibitory effect on PDE3A enzyme (AMP-Glo assay); type: biochemical
T1 construct: purchased BPS
Description: (§1) 1. Table 1 Main reagents and consumables for in vitro detection of inhibitory effect
(§2) 2. Preparation of experimental buffers Reaction buffer (5×): 50 mM Tris-HCl (buffer), 50 mM MgCl2, 0.5% BSA, 0.25% Tween-20, pH 7.4, stored at -20°C. 3. […] The starting concentration of the reference substance serial dilution was the Low control, and 1% DMSO-reaction buffer served as the High control. • 3) The enzyme was diluted to the desired concentration with 1× reaction buffer, and 4 µL of the diluted solution was transferred to the assay plate. After centrifugation, the 384-well low dead-volume microplate was sealed with sealing film and incubated in the incubator at 23°C for 15 minutes. • 4) The substrate cAMP was diluted to the desired concentration using 1× reaction buffer, and 5 µL of the diluted solution was transferred to the assay plate. After centrifugation, the plate was sealed again and incubated in the incubator at 23°C for 60 minutes (PDE3A) or 10 minutes (PDE4B1). • 5) Then, 5 µL of Reagent I from the AMP-Glo™ Assay Kit was added to the assay plate. After centrifugation and sealing, the plate was incubated in the incubator at 23°C for 60 minutes. • 6) The detection solution was prepared according to the AMP-Glo™ Assay Kit instructions, and 10 µL of the detection solution was added to the assay plate. After centrifugation and sealing, the plate was incubated in the incubator at 23°C for 60 minutes. • 7) The readout was recorded using a multimode microplate reader. 4. […] 5.

PDE4B1 = molecular target: T2, PDE4B1 (Homo sapiens, UniProt Q07343); experiment: In vitro inhibitory effect on PDE4B1 enzyme (AMP-Glo assay); type: biochemical
T2 construct: purchased Sigma
T2 sequence (Q07343 whole entry): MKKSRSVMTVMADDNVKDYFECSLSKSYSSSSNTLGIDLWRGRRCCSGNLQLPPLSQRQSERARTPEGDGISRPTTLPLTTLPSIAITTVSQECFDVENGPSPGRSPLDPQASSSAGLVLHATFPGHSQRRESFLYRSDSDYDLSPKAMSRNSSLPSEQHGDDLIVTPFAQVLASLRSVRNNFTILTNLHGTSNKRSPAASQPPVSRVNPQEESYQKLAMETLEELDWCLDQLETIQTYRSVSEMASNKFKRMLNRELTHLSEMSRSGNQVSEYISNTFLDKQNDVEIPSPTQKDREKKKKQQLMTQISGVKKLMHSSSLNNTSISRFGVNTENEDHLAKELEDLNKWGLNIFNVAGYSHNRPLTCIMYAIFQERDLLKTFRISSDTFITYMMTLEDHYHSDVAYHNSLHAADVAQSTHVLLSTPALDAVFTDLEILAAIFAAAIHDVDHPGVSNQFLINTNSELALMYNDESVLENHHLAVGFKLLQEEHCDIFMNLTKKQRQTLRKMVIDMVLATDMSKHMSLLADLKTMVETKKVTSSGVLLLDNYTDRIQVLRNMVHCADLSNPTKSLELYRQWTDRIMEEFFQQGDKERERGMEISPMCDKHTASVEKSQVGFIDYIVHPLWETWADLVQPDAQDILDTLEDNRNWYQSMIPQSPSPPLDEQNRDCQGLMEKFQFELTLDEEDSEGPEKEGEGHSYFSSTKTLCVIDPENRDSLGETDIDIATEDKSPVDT
Description: as §1, §2

[1] = AMP-Glo Assay Kit, substrate cAMP, 23°C, 60 minutes, read-out: PDE3A (IC50)
[2] = AMP-Glo Assay Kit, substrate cAMP, 23°C, 10 minutes, read-out: PDE4B1 (IC50)

T1 sequence (Q14432 whole entry): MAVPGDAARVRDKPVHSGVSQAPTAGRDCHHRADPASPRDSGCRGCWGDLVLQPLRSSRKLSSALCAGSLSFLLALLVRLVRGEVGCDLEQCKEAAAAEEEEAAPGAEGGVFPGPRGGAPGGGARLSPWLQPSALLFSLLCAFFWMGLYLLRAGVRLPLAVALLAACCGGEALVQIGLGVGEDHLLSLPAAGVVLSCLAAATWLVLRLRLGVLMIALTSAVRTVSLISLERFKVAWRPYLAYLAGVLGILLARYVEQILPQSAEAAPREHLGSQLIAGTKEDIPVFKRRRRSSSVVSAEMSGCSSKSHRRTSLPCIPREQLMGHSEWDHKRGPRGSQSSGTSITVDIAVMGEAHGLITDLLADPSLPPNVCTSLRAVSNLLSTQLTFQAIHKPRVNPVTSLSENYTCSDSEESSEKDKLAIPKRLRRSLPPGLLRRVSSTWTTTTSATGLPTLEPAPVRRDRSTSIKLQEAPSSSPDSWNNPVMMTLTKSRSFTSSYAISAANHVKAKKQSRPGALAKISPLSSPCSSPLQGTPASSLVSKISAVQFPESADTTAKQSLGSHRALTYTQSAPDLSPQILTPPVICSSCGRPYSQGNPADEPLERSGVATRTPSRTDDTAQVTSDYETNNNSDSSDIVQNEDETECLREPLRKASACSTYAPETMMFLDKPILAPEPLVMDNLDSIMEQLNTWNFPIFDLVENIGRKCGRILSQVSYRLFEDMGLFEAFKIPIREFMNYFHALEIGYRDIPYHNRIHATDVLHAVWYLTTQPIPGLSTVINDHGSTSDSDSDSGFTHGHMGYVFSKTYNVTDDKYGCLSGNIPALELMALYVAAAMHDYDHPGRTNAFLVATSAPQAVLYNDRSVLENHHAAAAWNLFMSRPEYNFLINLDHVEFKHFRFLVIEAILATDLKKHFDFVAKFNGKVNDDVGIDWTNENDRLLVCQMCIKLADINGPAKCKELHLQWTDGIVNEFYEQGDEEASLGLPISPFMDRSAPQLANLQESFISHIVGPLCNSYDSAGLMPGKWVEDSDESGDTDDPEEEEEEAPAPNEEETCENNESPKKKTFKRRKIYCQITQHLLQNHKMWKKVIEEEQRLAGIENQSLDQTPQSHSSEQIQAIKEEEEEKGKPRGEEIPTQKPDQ

Row | IC50 (PDE3A; [1]) | IC50 (PDE4B1; [2]) | SMILES | IC50 (PDE3A) | IC50 (PDE4B1)
1 |  |  | COc1cc2c(cc1OC)-c1cc(N(CCC#N)c3c(C)cc(C)cc3C)nc(=O)n1CC2 [Compound 1] | 0.11 nM | 298 nM
2 | 0.1 nM | 974 nM | COc1cc2c(cc1OC)-c1cc(=Nc3c(C)cc(C)cc3C)n(CCC(O)CO)c(=O)n1CC2 (centres unmarked) [Compound 5] |  | 
3 | 0.026 nM | 121 nM | COc1cc2c(cc1OC)-c1cc(N(CCC(O)CO)c3c(C)cc(C)cc3C)nc(=O)n1CC2 (centres unmarked) [Compound 6] |  | 
4 |  |  | CONC(=O)NCCn1c(=Nc2c(C)cc(C)cc2C)cc2n(c1=O)CCc1cc(OC)c(OC)cc1-2 [Compound 8] | 0.86 nM | 377 nM
5 |  |  | COc1cc2c(cc1OC)C(C)Cn1c-2cc(=Nc2c(C)cc(C)cc2C)n(CCNC(N)=O)c1=O (centres unmarked) [Compound 9] | 5.66 nM | 114 nM
6 |  |  | Cc1cc(C)c(N=c2cc3n(c(=O)n2CCNC(N)=O)CCc2cc4c(cc2-3)OCO4)c(C)c1 [Compound 11] | 117 nM | 
7 |  |  | CCOc1cc2c(cc1OC)CCn1c-2cc(=Nc2c(C)cc(C)cc2C)n(CCNC(N)=O)c1=O [Compound 12] | 7.45 nM | 337 nM
8 |  |  | Cc1cc(C)c(N=c2cc3n(c(=O)n2CCNC(N)=O)CCc2cc4c(cc2-3)OCCO4)c(C)c1 [Compound 13] | 44.6 nM | 
9 | 6.63 nM |  | CNCCn1c(=Nc2c(C)cc(C)cc2C)cc2n(c1=O)CCc1cc(OC)c(OC)cc1-2 [Compound 16] |  | 
10 | 0.54 nM | 5000 nM | COc1cc2c(cc1OC)-c1cc(=Nc3c(C)cc(C)cc3C)n(CCC(C)(C)O)c(=O)n1CC2 [Compound 17] |  | 
11 | 0.088 nM | 213 nM | COc1cc2c(cc1OC)-c1cc(N(CCC(C)(C)O)c3c(C)cc(C)cc3C)nc(=O)n1CC2 [Compound 18] |  | 
12 |  |  | COc1cc2c(cc1OC)-c1cc(=Nc3c(C)cc(C)cc3C)n(CCNC(N)=O)c(=O)n1CCS2 [Compound 20] | 24.9 nM | 251 nM
13 |  |  | COc1cc2c(cc1OC)S(=O)(=O)CCn1c-2cc(=Nc2c(C)cc(C)cc2C)n(CCNC(N)=O)c1=O [Compound 21] | 1000 nM | 6910 nM
14 |  |  | COc1cc2c(cc1OC)-c1cc(=Nc3c(C)cc(C)cc3C)n(CCNC(N)=O)c(=O)n1CCO2 [Compound 22] | 3.3 nM | 728 nM
15 |  |  | CCOc1cc2c(cc1OC)-c1cc(=Nc3c(C)cc(C)cc3C)n(CCNC(=O)c3c(O)nnn3C)c(=O)n1CC2 [Compound 23] | 0.0058 nM | 12.9 nM
16 | 1010 nM |  | COc1cc2c(cc1OCc1ccccc1)CCn1c-2cc(=Nc2c(C)cc(C)cc2C)n(CCNC(N)=O)c1=O [Compound 24] |  | 
17 |  |  | COc1cc2c(cc1OC1CCOC1)CCn1c-2cc(=Nc2c(C)cc(C)cc2C)n(CCNC(N)=O)c1=O (centres unmarked) [Compound 25] | 4.47 nM | 381 nM
18 | 0.34 nM | 419 nM | COc1cc2c(cc1OCC(F)(F)F)CCn1c-2cc(=Nc2c(C)cc(C)cc2C)n(CCNC(=O)c2c(O)nnn2C)c1=O [Compound 26] |  | 
19 | 2.16 nM | 918 nM | COc1cc2c(cc1OCC1CC1)CCn1c-2cc(=Nc2c(C)cc(C)cc2C)n(CCNC(=O)c2c(O)nnn2C)c1=O [Compound 27] |  | 
20 |  |  | COCCOc1cc2c(cc1OC)-c1cc(=Nc3c(C)cc(C)cc3C)n(CCNC(=O)c3c(O)nnn3C)c(=O)n1CC2 [Compound 28] | 0.46 nM | 478 nM
21 |  |  | CCOc1cc2c(cc1OC)-c1cc(=Nc3c(C)cc(C)cc3C)n(CCNC(=O)c3ccnc(Cl)c3)c(=O)n1CC2 [Compound 29] | 4.78 nM | 423 nM

Row | IC50 (PDE3A; [1]) | IC50 (PDE4B1; [2]) | SMILES | IC50 (PDE3A) | IC50 (PDE4B1)
22 |  |  | CCOc1cc2c(cc1OC)-c1cc(=Nc3c(C)cc(C)cc3C)n(CCNC(=O)c3cc[nH]c(=O)c3)c(=O)n1CC2 [Compound 30] | 3.23 nM | 26.3 nM
23 |  |  | CCOc1cc2c(cc1OC)-c1cc(N(c3c(C)cc(C)cc3C)C3CC(NC(=O)c4c(O)nnn4C)C3)nc(=O)n1CC2 (centres unmarked) [Compound 31] | 0.57 nM | 193 nM
24 |  |  | COc1cc2c(cc1OC)-c1cc(N(c3c(C)cc(C)cc3C)C3CN(C(N)=O)C3)nc(=O)n1CC2 [Compound 32] | 0.21 nM | 238 nM
25 |  |  | COc1cc2c(cc1OC)-c1cc(=Nc3c(C)cc(C)cc3C)n(CCNC(=O)N3CCn4c(nnc4C(F)(F)F)C3)c(=O)n1CC2 [Compound 33] | 4.78 nM | 3760 nM
26 |  |  | COc1cc2c(cc1OC)-c1cc(=Nc3c(C)cc(C)cc3C)n(CCN3CCn4c(nnc4C(F)(F)F)C3)c(=O)n1CC2 [Compound 34] | 6.4 nM | 
27 |  |  | COc1cc2c(cc1OC)-c1cc(N(c3c(C)cc(C)cc3C)C3CCN(C(=O)c4c(O)nnn4C)C3)nc(=O)n1CC2 (centres unmarked) [Compound 35] | 0.56 nM | 1280 nM
28 |  |  | COc1cc2c(cc1OC)-c1cc(=Nc3c(C)cc(C)cc3C)n(CCNC(=O)c3cnc4n3CCC4)c(=O)n1CC2 [Compound 36] | 0.9 nM | 530 nM
29 |  |  | COc1cc2c(cc1OC1CCN(C)C1)CCn1c-2cc(=Nc2c(C)cc(C)cc2C)n(CCNC(N)=O)c1=O (centres unmarked) [Compound 37] | 60.1 nM | 
30 |  |  | COc1cc2c(cc1OC)-c1cc(=Nc3c(C)cc(C)cc3C)n(CCNC(=O)NCCN3CCOCC3)c(=O)n1CC2 [Compound 38] | 1.61 nM | 1890 nM
31 |  |  | COc1cc2c(cc1OC)-c1cc(=Nc3c(C)cc(C)cc3C)n(CCNC(=O)c3cccn(C)c3=O)c(=O)n1CC2 [Compound 39] | 0.72 nM | 18.7 nM
32 |  |  | CCn1cccc(C(=O)NCCn2c(=Nc3c(C)cc(C)cc3C)cc3n(c2=O)CCc2cc(OC)c(OC)cc2-3)c1=O [Compound 40] | 1.29 nM | 82.1 nM
33 |  |  | COc1cc2c(cc1OC)-c1cc(=Nc3c(C)cc(C)cc3C)n(CCNC(=O)c3cccn(C4CC4)c3=O)c(=O)n1CC2 [Compound 41] | 1.14 nM | 250 nM
34 |  |  | CCOc1cc2c(cc1OC)-c1cc(N(CCN)c3c(C)cc(C)cc3C)nc(=O)n1CC2 [Compound 42] | 0.62 nM | 75.3 nM
35 |  |  | CCOc1cc2c(cc1OC)-c1cc(N(CCNC(=O)c3c(O)nnn3C)c3c(C)cc(C)cc3C)nc(=O)n1CC2 [Compound 43] | 0.19 nM | 13.6 nM
36 |  |  | COc1cc2c(cc1OC)-c1cc(N(CCNC(=O)c3c(O)nnn3C)c3c(C)cc(C)cc3C)nc(=O)n1CC2 [Compound 44] | 0.081 nM | 223 nM
37 |  |  | COc1cc2c(cc1OC)-c1cc(N(CCNC(N)=O)c3c(C)cc(C)cc3C)nc(=O)n1CC2 [Compound 45] | 0.032 nM | 100 nM
38 |  |  | COc1cc2c(cc1OC)-c1cc(N(CCNC(=O)c3cccn(C)c3=O)c3c(C)cc(C)cc3C)nc(=O)n1CC2 [Compound 46] | 0.082 nM | 17.8 nM
39 | 72.3 nM |  | COc1cc2c(cc1OC)-c1cc(N(c3c(C)cc(C)cc3C)C3CN(C(=O)c4c(O)nnn4C)C3)nc(=O)n1CC2 [Compound 47] |  | 
40 |  |  | COc1cc2c(cc1OC)-c1cc(N(CCNC(=O)N3CCOCC3CO)c3c(C)cc(C)cc3C)nc(=O)n1CC2 (centres unmarked) [Compound 48] | 0.16 nM | 579 nM
41 | 325 nM |  | COc1cc2c(cc1OC)-c1cc(N(c3c(C)cc(C)cc3C)C3CN(C(=O)c4cnc[nH]4)C3)nc(=O)n1CC2 [Compound 49] |  | 
42 |  |  | COc1cc2c(cc1OC)-c1cc(N(c3c(C)cc(C)cc3C)C3CN(C(=O)c4[nH]nnc4C)C3)nc(=O)n1CC2 [Compound 50] | 0.005 nM | 67.4 nM

Row | SMILES | IC50 (PDE3A; [1]) | IC50 (PDE4B1; [2]) | IC50 (PDE3A) | IC50 (PDE4B1)
43 | COc1cc2c(cc1OC)-c1c/c(=N\c3c(C)cc(C)cc3C)n(C)c(=O)n1CC2 [Trequinsin Hydrochlorid, Trequinsin hydrochloride, reference compound] | 0.227 nM |  |  | 

From patent EP4714952A1, “COMPOUND AND USE THEREOF” (Autobio Group Co., Ltd., priority 2023, dated 2025)
